Data as given in patent US9902986B2, “Enterobactin conjugates and uses thereof” (Massachusetts Institute of Technology, priority 2013, dated 2018).

Assays:
[1] = system: mixed culture of E. coli K-12 and E. coli CFT073; conditions: iron-deficient conditions (200 μM DP), 50% MHB, 30° C., t=19 h
Experimental: (§1) No antibiotic marker was included in these cultures.
2,2′-dipyridyl (DP, 200 μM) was added to provide conditions of iron limitation.

[2] = system: E. coli K-12; test: Antimicrobial activity assay, E. coli K-12; format: cell-based, Escherichia coli; conditions: for concentrations at which E. coli K-12 was inhibited: inhibition attributed to iron deprivation
Experimental: (§2) Overnight cultures of the bacterial strains were prepared by inoculating 5 mL of LB with the bacterial freezer stocks and the cultures were incubated at 37° C. in a tabletop incubator shaker set at 150 rpm. The overnight culture grew to saturation and was diluted 1:100 into 5 mL of fresh LB medium containing DP (200 μM) and incubated at 37° C. with shaking at 150 rpm until OD600 reached 0.6. The cultures were subsequently diluted to an OD600 value of 0.001 in 50% MHB medium (11.5 g/L) with or without DP (200 μM). No antibiotic marker was included in these cultures. A 90-μL aliquot of the diluted culture was combined with a 10-μL aliquot of a 10× solution of the tested compounds in a 96-well plate, which was wrapped in […] and incubated at 30° C. with shaking at 150 rpm for 19 h. Bacterial growth was determined by measuring OD600 using a BIOTEK SYNERGY HT plate reader. Each well condition was prepared in duplicate, and at least three independent replicates were conducted on different days. The resulting mean OD600 are reported and the error bars are the standard deviation.
In an exemplary experiment, antibacterial activities of the conjugates were tested against E. coli K-12 in 50% MHB at 30° C., t=19 h. 2,2′-dipyridyl (DP, 200 μM) was added to provide conditions of iron limitation.

[3] = system: various E. coli strains; test: Antibacterial activity against a panel of E. coli strains; format: cell-based, Escherichia coli; conditions: 6 strains of E. coli (K-12, B, H9049, 25922, UTI89, CFT073)
Experimental: as §2
Ampicillin and amoxicillin are β-lactam antibiotics that have periplasmic targets in Gram-negative bacteria and inhibit cell wall biosynthesis. The antibacterial activity of Ent-ampicillin and Ent-amoxicillin conjugates 44 and 45 was evaluated in vitro against a panel of Gram-negative and positive-bacteria.
Select Ent-β-lactam conjugates (Ent-Amp and Ent-Amx) and their glucosylated derivatives (MGE-Amp, MGE-Amx, DGE-Amp, and DGE-Amx) were tested against 6 strains of E. coli. Four of them are non-pathogenic strains, namely K-12, B, H9049, and 25922, and the other two are uropathogenic clinical isolates, namely UTI89 and CFT073.

[4] = system: E. coli UTI89; test: Antimicrobial activity assay, E. coli UTI89; format: cell-based, Escherichia coli; conditions: 50% MHB, 200 μM DP (iron-deficient), 30° C., t=19 h
Experimental: (§3) No antibiotic marker was included in these cultures. […] Bacterial growth was determined by measuring OD600 using a BIOTEK SYNERGY HT plate reader. Each well condition was prepared in duplicate, and at least three independent replicates were conducted on different days. The resulting mean OD600 are reported and the error bars are the standard deviation.
In another exemplary experiment, antibacterial activities of the conjugates were tested against E. coli UTI89 in 50% MHB at 30° C., t=19 h. […] Under iron-deficient conditions, Ent-Amp, MGE-Amp, and DGE-Amp provided a complete growth inhibition at 100 nM.

[5] = system: E. coli CFT073; test: Antimicrobial activity assay, E. coli CFT073; format: cell-based, Escherichia coli; conditions: for concentration providing complete growth inhibition: 200 μM DP (iron-deficient); for effect of preloading Fe(III) on antibacterial activity: Fe(III)-loaded versus apo conjugates
Experimental: as §2
In another exemplary experiment, antibacterial activities of the conjugates were tested against E. coli CFT073 in 50% MHB at 30° C., t=19 h. DP (200 μM) was added to provide conditions of iron limitation.
In another exemplary experiment, antibacterial activities of Fe(III)-loaded or apo Ent-β-lactam conjugates (Ent-Amp and Ent-Amx) and their glucosylated derivatives (MGE-Amp, MGE-Amx, DGE-Amp, and DGE-Amx) against the uropathogenic strain E. coli CFT073 were tested in 50% MHB, 30° C., t=19 h. 2,2′-dipyridyl (DP, 200 μM) was added to provide conditions of iron limitation.

[6] = system: uropathogenic E. coli and non-pathogenic E. coli; test: Mixed culture assays (summary), uropathogenic and non-pathogenic E. coli; format: cell-based, Escherichia coli; conditions: uropathogenic with non-pathogenic E. coli
From the text: as §1

[7] = system: E. coli UTI89; test: Competition assay with native siderophores, E. coli UTI89; format: cell-based, Escherichia coli; conditions: conjugate 100 nM, varied Ent, MGE or DGE, 50% MHB, 200 μM DP, 30° C., t=19 h
Experimental: Ent was synthesized following a literature procedure^55 and stored as DMSO stock solution at −20° C. MGE and DGE were prepared from Ent using MceC and IroB as described for MGE-PEG3-N3 and DGE-PEG3-N3.
(§4) In an exemplary experiment, select conjugates (Ent-Amp, MGE-Amp, and DGE-Amp) with select native siderophores (Ent, MGE, and DGE) were tested against the uropathogenic strain E. coli UTI89 in 50% MHB, t=19 h, 30° C. […] The concentration of the conjugates was fixed at 100 nM, and the concentration of the native siderophores was varied. […] These observations indicate that Ent, MGE, Ent-Amp, and MGE-Amp may enter via both FepA and IroN with different efficiency, but DGE and DGE-Amp may only enter via IroN.
as §4, with “In another” for “In an”, “100 nM” for “100 nM,”

[8] = system: S. aureus ATCC 25923; test: Antibacterial activity assay, S. aureus; format: cell-based, Staphylococcus aureus; conditions: iron limitation (200 μM 2,2′-dipyridyl)
Experimental: as §3
Ampicillin and amoxicillin are β-lactam antibiotics that have periplasmic targets in Gram-negative bacteria and inhibit cell wall biosynthesis. The antibacterial activity of Ent-ampicillin and Ent-amoxicillin conjugates 44 and 45 was evaluated in vitro against a panel of Gram-negative and positive-bacteria. FIG. 6 provides exemplary results from antibacterial activity assays against select bacterial species that include non-pathogenic and pathogenic E. coli strains and also Staphylococcus aureus. Under conditions of iron limitation (200 μM 2,2′-dipyridyl), the conjugates provide 100- to 1000-fold improved activity against various E. coli strains, including human pathogens, compared to the unmodified antibiotics.

[9] = 50% MHB, 200 μM DP, 30° C., t=19 h

CC1(C)SC2C(NC(=O)C(NC(=O)CCCc3cn(CCOCCOCCOCCNC(=O)c4cc(O)c(O)c(C(=O)NC5COC(=O)C(NC(=O)c6cc(C7OC(CO)C(O)C(O)C7O)cc(O)c6O)COC(=O)C(NC(=O)c6cccc(O)c6O)COC5=O)c4)nn3)c3ccccc3)C(=O)N2C1C(=O)O (stereo not shown) [MGE-Amp]
growth inhibition in mixed culture at 100 nM [1]: only inhibited the growth of E. coli CFT073 | antibacterial activity at 100 nM [2, 9]: inactive | antibacterial activity, comparison [2, 9]: more active against the bacteria than DGE-Amp | concentrations at which E. coli K-12 was inhibited [2]: micromolar concentrations | antibacterial activity against uropathogenic compared to non-pathogenic E. coli [3]: greater antibacterial activity against the uropathogenic E. coli compared to non-pathogenic E. coli | concentration providing complete growth inhibition [4]: 100 nM | concentration providing complete growth inhibition ([5]; 50% MHB, 30° C., t=19 h): 10 nM | effect of preloading Fe(III) on antibacterial activity [5, 9]: no effect | strain-specific growth inhibition in the mixed culture assays [6]: specifically inhibited the growth of the uropathogenic E. coli | attenuation of antibacterial activity by native siderophores [7]: attenuated by Ent, MGE, or DGE

CC1(C)SC2C(NC(=O)C(NC(=O)CCCc3cn(CCOCCOCCOCCNC(=O)c4cc(O)c(O)c(C(=O)NC5COC(=O)C(NC(=O)c6cc(C7OC(CO)C(O)C(O)C7O)cc(O)c6O)COC(=O)C(NC(=O)c6cc(C7OC(CO)C(O)C(O)C7O)cc(O)c6O)COC5=O)c4)nn3)c3ccccc3)C(=O)N2C1C(=O)O (stereo not shown) [DGE-Amp]
growth inhibition in mixed culture at 100 nM [1]: only inhibited the growth of E. coli CFT073 | antibacterial activity at 100 nM [2, 9]: inactive | concentration at which growth inhibition was observed (attributed to iron deprivation) [2, 9]: 10 µM | concentrations at which E. coli K-12 was inhibited [2]: micromolar concentrations | antibacterial activity against uropathogenic compared to non-pathogenic E. coli [3]: greater antibacterial activity against the uropathogenic E. coli compared to non-pathogenic E. coli | concentration providing complete growth inhibition [4]: 100 nM | concentration providing complete growth inhibition ([5]; 50% MHB, 30° C., t=19 h): 10 nM | improved antibacterial activity against E. coli CFT073 over E. coli K-12 ([5]; CFT073 (FepA and IroN) versus K-12 (FepA only)): 100 fold | effect of preloading Fe(III) on antibacterial activity [5, 9]: no effect | strain-specific growth inhibition in the mixed culture assays [6]: specifically inhibited the growth of the uropathogenic E. coli | attenuation of antibacterial activity by native siderophores [7]: attenuated by Ent, MGE, or DGE

CC1(C)SC2C(NC(=O)C(NC(=O)CCCc3cn(CCOCCOCCOCCNC(=O)c4cc(O)c(O)c(C(=O)NC5COC(=O)C(NC(=O)c6cccc(O)c6O)COC(=O)C(NC(=O)c6cccc(O)c6O)COC5=O)c4)nn3)c3ccc(O)cc3)C(=O)N2C1C(=O)O (stereo not drawn) [Ent-Amx]
effect of preloading Fe(III) on antibacterial activity [5, 9]: no effect | enhancement of activity compared to the unmodified antibiotics [8]: no enhancement of activity | attenuation of antibacterial activity by native siderophores [7]: only attenuated in the presence of Ent or MGE

CC1(C)SC2C(NC(=O)C(NC(=O)CCCc3cn(CCOCCOCCOCCNC(=O)c4cc(O)c(O)c(C(=O)NC5COC(=O)C(NC(=O)c6cccc(O)c6O)COC(=O)C(NC(=O)c6cccc(O)c6O)COC5=O)c4)nn3)c3ccccc3)C(=O)N2C1C(=O)O (stereo not drawn) [Ent-Amp]
concentration providing complete growth inhibition for both strains [1]: 100 nM | concentration providing complete growth inhibition ([2]; 50% MHB, 200 μM DP (iron-deficient), 30° C., t=19 h): 100 nM | concentration providing complete growth inhibition [4]: 100 nM | antibacterial activity at 10 nM ([5]; 10 nM, 50% MHB, 200 μM DP, 30° C., t=19 h): slightly less active | effect of preloading Fe(III) on antibacterial activity [5, 9]: no effect | enhancement of activity compared to the unmodified antibiotics [8]: no enhancement of activity | attenuation of antibacterial activity by native siderophores [7]: only attenuated in the presence of Ent or MGE
